Results from publication PMC6271079, “Amino Acid Derivatives of Ligustrazine-Oleanolic Acid as New Cytotoxic Agents” (Molecules, 2014).

Assays:
mice = conditions: via gavage in mice; earlier studies, no reference given; cited from earlier work
BGC-823 = assay: MTT cytotoxicity assay, BGC-823; assay type: cell-based; conditions: BGC-823, 72 h, human gastric cancer cells
Experimental: (§1) The cytotoxicity of these compounds was tested on five cells lines by the standard MTT assay. The human cancer cells lines (HepG2, HT-29, Hela, BGC-823) and MDCK cells were provided by the Chinese Academy of Medical Sciences Peking Union Medical College. The tumor cells were cultured in RPMI 1640 medium supplemented with 10% (v/v) fetal bovine serum and 1% (v/v) penicillin-streptomycin (Thermo Technologies, New York, NY, USA) at 37 °C in a humidified atmosphere with 5% CO2. The growing tumor cells at a density 3 × 10^3 cells/mL were exposed to various concentrations of the tested drugs and incubated in a 96-well microtiter plate for 72 h (37 °C, 5% CO2). After MTT solution (20 μL, 5 mg/mL) was added to each well, the plate was incubated for a further 4 h. Then the media was removed. Formazan crystals were dissolved with DMSO (150 μL). After mixing well, the absorbance was quantified at 490 nm with a BIORAD 550 spectrophotometer (Bio-rad Life Science Development Ltd., Beijing, China). Wells containing no drugs were used to be blanks. The IC50 values were defined as the concentration of compounds that produced a 50% reduction of surviving cells and calculated using the Logit-method. Tumor cell growth inhibitory rate was calculated in the following Equation (1): % inhibition = (1 − Sample group OD/Control group OD) × 100%(1)

Hela = assay: MTT cytotoxicity assay, Hela; assay type: cell-based, human; conditions: Homo sapiens, 72 h, cervical cancer cells
Experimental: as §1

[1] = logP by shake flask-ultraviolet spectrophotometry; assay type: physicochemical; conditions: n-caprylic alcohol-water (octanol/water); pH 6.8, n-caprylic alcohol-water, shake flask-UV; read-out: logP (octanol-water partition coefficient)
Text: Lipophilicity (ClogP) is used in rational drug design as a key factor related to the cell transmembrane transport or other biological processes. ClogP values can either be calculated experimentally or predicted by means of commercially available programs. In this work, ClogP values of the TOA-amino acid derivatives were predicted using Sybyl-X 2.0 (Tripos, Certara Inc., St. Louis, MO, USA). […] To determine the octanol-water partition coefficient (logP), a shake flask-ultraviolet spectrophotometry method was used to determine the concentration of 6a and TOA in the water phase and organic phase at pH 6.8 with n-caprylic alcohol-water as the simulation system. […] However, the better activity connected with the increases of these amino acid conjugates’ solubility is worthy of further study.

MDCK cells = assay: MTT toxicity (nephrotoxicity) evaluation, MDCK; assay type: cell-based; conditions: Canis lupus familiaris, MDCK, 72 h, Madin-Darby canine kidney cells
Experimental: as §1

NF-κB/p65 and COX-2 = tested on: NF-κB/p65 and COX-2; set-up: method as in PMID 24147349; conditions: S180 mice; cited from earlier work
HepG2 = assay: MTT cytotoxicity assay, HepG2; assay type: cell-based; conditions: HepG2, 72 h, human hepatoma cells
Experimental: as §1

HT-29 = assay: MTT cytotoxicity assay, HT-29; assay type: cell-based; conditions: HT-29, 72 h, human colorectal cancer cells
Experimental: as §1

## Cc1nc(C)c(COC(=O)[C@]23CCC(C)(C)CC2C2=CCC4[C@@]5(C)CC[C@H](O)C(C)(C)C5CC[C@@]4(C)[C@]2(C)CC3)nc1C (stereo partly drawn) [TOA, 3β-Hydroxyolea-12-en-28-oic acid-3,5,6-trimethylpyrazine-2-methyl Ester]
mice
  LD50: exceeded 6.0 g/kg
BGC-823
  IC50: > 25 µM
Hela
  IC50: 8.68 µM
[1]
  logP: 6.11
MDCK cells
  IC50: > 25 µM
NF-κB/p65 and COX-2
  Expression of NF-κB/p65 and COX-2: prevented the expression
HepG2
  IC50: 21.4 µM
HT-29
  IC50: > 25 µM
